These results are taken from PMC3071440 (Journal of medicinal chemistry, 2010).

The conditions of data set [1]: rat, oral 10 mg/kg; cited from earlier work.
The nature of data set [2]: In vivo PK in rats following oral administration. To be noted: rat, oral 10 mg/kg, harvested at or near Tmax.

Structures are written as SMILES.

For the compound `Cc1c(OCc2cccc(-c3ccc(C(=O)O)cc3)c2)cc2c(c1C)C(=O)C(C1CCCC1)C2` (centres unmarked) [Compound 1, 3′-((2-cyclopentyl-6,7-dimethyl-1-oxo-2,3-dihydro-1H-inden-5-yloxy)methyl)biphenyl-4-carboxylic acid], in data set [1], the “brain levels following oral dosing” value is recorded as “below the limit of quantitation”.
For the compound `O=C(O)c1cc(-c2cccc(COc3ccc4c(c3)CN(C3CCCC3)C4=O)c2)ccc1Cl` [Compound 8a, 4-Chloro-3′-((2-cyclopentyl-1-oxoisoindolin-5-yloxy)-methyl)biphenyl-3-carboxylic acid], the Brain level in data set [2] was 3.8 ± 1.2 µM.
